Experimental data from patent publication EP0343223B1, “USE OF MELATONIN OR DERIVATIVES THEREOF FOR THE PRODUCTION OF PHARMACEUTICAL COMPOSITIONS EFFECTIVE TO COUNTERACT THE EFFECTS OF AGING” (priority 1987, dated 1989).

Experiments:
Type in all cases: in vivo
lipids in blood = test: Lipids in blood of aging mice after chronic night melatonin treatment; details: data not shown
Text: It follows that the increase of the production of thyroid hormones induced in vivo by exogenous melatonin should also be accompanied by an improved degradation of cholesterol, triglycerides and phospholipids and by detoxification effects at the liver level, all these beneficial effects resulting in a slowing down of the aging process.

T3 and T4 = T3 and T4 by radioimmunoassay in serum of aging mice after chronic night melatonin in drinking water
Text: It can be seen (Table 1) that chronical treatment with melatonin in the drinking water in aging mice elevates the levels of T3 ([…]) and T4 (tyroxine) in their peripheral blood and corrects thus ageing-related thyroid dysfunction or lowered function.

[1] = tested on: C57BL/6J inbred male mice; test: Nocturnal oral melatonin in the drinking water of aging mice: life span and body weight
Procedure: Experiments were initiated in 1985 in which groups of C57BL/6J inbred male mice, aged 575 days (10 mice per group), were given melatonin (10 µg/ml) in the drinking water while the controls received tap water containing the same amount of absolute ethanol used to prepare melatonin stock solution (1 ml ethanol in 10 liters of tap water). The drinking water with or without melatonin was given at 6 p.m. and removed at 8.30 a.m. The drinking water was changed twice weekly. Starting at 5 months after initiation of the nocturnal, oral melatonin treatment, when the mice reached two years of age, a striking difference of body weight and of general body and pelage conditions started to be evident. Although some of the mice died earlier in both groups, the majority of the surviving mice treated with melatonin maintained their optimal body weight until 28 to 33 months of age (35.8± 4 grams) while the untreated mice lost progressively weight and were all dead within 29 months of age. Average body weight of the control mice at 27 months of age was 27.8± 4 grams.
The last melatonin-treated mouse died at 3 years of age. These date though preliminary make it evident that melatonin treatment of aging mice prolonged their life or circa 20 percent (average 6 months longer). The life span of melatonin-treated mice was 931 ± 80 days while that of control mice was 755 ± 81 days (p < 0.01).

[2] = C3H/He female, age 23 months, 3 months of melatonin treatment
[3] = C3H/He female, age 23 months, 3 months of melatonin treatment, serum
[4] = C57BL/6 female, age 22 months, 5 months of melatonin treatment

Q: For `COc1ccc2[nH]cc(CCNC(C)=O)c2c1` [melatonin], which “aging-related increase of lipids in blood” value (lipids in blood) is on record?
A: The value was “corrects the aging-related increase of lipids in blood”.

Q: And the “T3 change vs untreated” value (T3 and T4; [2])?
A: Its value is “+25%”.

Q: And the T4/T3 (T3 and T4; [2])?
A: Its T4/T3 is 42.47.

Q: And the “T4/T3 change vs untreated” value (T3 and T4; [2])?
A: Its value is “+18%”.

Q: And the “T4 change vs untreated” value (T3 and T4; [2])?
A: The value was “+34%”.

Q: What about the T3 (T3 and T4; [3]) of the same compound?
A: Its T3 is 0.664± 0.137.

Q: What about the T4 (T3 and T4; [3]) of the same compound?
A: The T4 was 28.2± 0.8.

Q: And the “T3 change vs untreated” value (T3 and T4; [4])?
A: The value was “+11%”.

Q: And the T4/T3 (T3 and T4; [4])?
A: The T4/T3 was 54.27.

Q: And the “T4/T3 change vs untreated” value (T3 and T4; [4])?
A: The value was “+10%”.

Q: And the “T4 change vs untreated” value (T3 and T4; [4])?
A: Its value is “+20%”.

Q: What about the T3 (T3 and T4; C57BL/6 female, age 22 months, 5 months of melatonin treatment, serum) of the same compound?
A: The T3 was 0.691± 0.077.

Q: What about the “age at death of the last melatonin-treated mouse” value ([1]; C57BL/6J male mice) of the same compound?
A: Its value is 3 years.

Q: What about the life span ([1]; C57BL/6J male mice, melatonin 10 µg/ml in drinking water 6 p.m. to 8.30 a.m., from 575 days of age, p < 0.01 vs control) of the same compound?
A: The life span was 931 ± 80 days.

Q: And the body weight ([1]; surviving melatonin-treated mice, maintained until 28 to 33 months of age, 10 µg/ml in drinking water at night, started at 575 days of age)?
A: Its body weight is 35.8± 4 grams.

Q: And the “average life prolongation (longer)” value ([1]; versus control mice)?
A: Its value is 6 months.

Q: And the prolonged their life ([1]; versus control mice)?
A: The prolonged their life was “circa 20%”.
